Measurements from patent publication USRE47689E1, “Compounds for treating spinal muscular atrophy” (PTC Therapeutics, Inc., priority 2011, dated 2019).
Like-named read-outs stand apart in the source and are kept apart here.

How the values were obtained:
[1] = test system: Smn protein; experiment: Smn protein assay in cultured cells (SMN HTRF); type: cell-based, human; conditions: for EC1.5x (concentration giving 1.5-fold Smn protein increase): SMA Type 1 patient fibroblast cells (GM03813), 7-point concentration curve, SMN HTRF, concentration producing 1.5 times Smn protein vs DMSO vehicle control, read-out: EC1.5x for Smn protein expression
In short: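 Lysates in RIPA with protease inhibitors are incubated overnight at room temperature with HTRF anti-SMN antibodies. EC1.5x is derived from fold increase in ΔF over vehicle.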

[2] = test system: SMN2 minigene (full length SMN2 minigene mRNA containing SMN2 exon 7); experiment: SMN2 minigene mRNA splicing RT-qPCR assay in cultured cells; type: cell-based, human; conditions: Homo sapiens, HEK293-H, read-out: EC1.5x for production of full length SMN2 mRNA
In short: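 Read-out: full-length (exon 7-included) SMN2 minigene mRNA by multiplex RT-qPCR with GAPDH, efficiency-corrected (1+E)^−Ct, GAPDH-normalized and divided by vehicle. Stably transfected HEK293H cells, 24 h compound exposure, duplicates per concentration. Value is EC1.5x, reported as star ranges.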

[3] = SMA patient fibroblast cells, 48 hours, 7-point concentration data, fold increase relative to vehicle control (SMN HTRF)
[4] = HEK293H cells stably transfected with SMN2-A minigene, 24 hours, 7-point concentration curve, 1.5-fold relative to vehicle-treated cells

SMILES | melting point | maximum fold (Fold) increase of Smn protein [1] | EC (1.5-fold) ([2]; 24 h) | EC1.5x (concentration giving 1.5-fold Smn protein increase) ([1]; 48 hours) | maximum fold (Fold) increase of Smn protein [1, 3] | EC (1.5-fold) [2, 4]
Cc1ccc2cc(-c3cc4ccc(N5CCNCC5)cc4oc3=O)cn2n1 [Cpd 641, 3-(2-methylpyrrolo[1,2-b]pyridazin-6-yl)-7-(piperazin-1-yl)-2H-chromen-2-one] | 213 to 216 °C | * (key: *: maximum fold increase of ≤1.2; **: fold increase between >1.2 and ≤1.35; ***: fold increase between >1.35 and ≤1.5; ****: fold increase between >1.5 and ≤1.65; *****: fold increase >1.65) | 0.3 to 1 µM | – | – | –
O=c1oc2cc(N3CCNCC3)ccc2cc1-c1ccn[nH]1 [Cpd 29, 7-(piperazin-1-yl)-3-(1H-pyrazol-5-yl)-2H-chromen-2-one] | 224 to 228 °C | – | 3 to 30 µM | – | ** (fold increase between >1.2 and ≤1.35) | –
Cc1cn2cc(-c3cc4ccc(N5CCCNCC5)cc4oc3=O)nc2c(C(F)(F)F)n1 [Cpd 607, 7-(1,4-diazepan-1-yl)-3-[6-methyl-8-(trifluoromethyl)imidazo[1,2-a]pyrazin-2-yl]-2H-chromen-2-one] | > 300 °C | – | – | 300 to 1000 nM | *** (fold increase between >1.35 and ≤1.5) | < 0.1 µM
CCc1cn2cc(-c3cc4ccc(N5C[C@@H](C)N[C@@H](C)C5)cc4oc3=O)nc2s1 [Cpd 429, 7-[(3R,5S)-3,5-dimethylpiperazin-1-yl]-3-(2-ethylimidazo[2,1-b][1,3]thiazol-6-yl)-2H-chromen-2-one] | 251 to 253 °C | – | – | – | * (maximum fold increase of ≤1.2) | 0.3 to 1 µM
Cc1cn2cc(-c3cc4ccc(C5CCN(CCCF)CC5)cc4oc3=O)nc2c(C)n1 [Compound 906, 3-(6,8-dimethylimidazo[1,2-a]pyrazin-2-yl)-7-[1-(3-fluoropropyl)piperidin-4-yl]-2H-chromen-2-one] | 195 to 200 °C | – | – | < 300 nM | ***** (fold increase >1.65) | < 0.1 µM
C[C@H]1CN(c2ccc3cc(-c4cccc(Cl)c4)c(=O)oc3c2)CCN1 [Compound 509, 3-(3-chlorophenyl)-7-[(3S)-3-methylpiperazin-1-yl]-2H-chromen-2-one] | 149 to 151 °C | – | – | – | * (maximum fold increase of ≤1.2) | 1 to 3 µM

Further lines, with some results ahead:

melting point | SMILES | maximum fold (Fold) increase of Smn protein [1] | EC (1.5-fold) ([2]; 24 h) | EC1.5x (concentration giving 1.5-fold Smn protein increase) ([1]; 48 hours) | maximum fold (Fold) increase of Smn protein [1, 3] | EC (1.5-fold) [2, 4]
257 to 259 °C | CCN1CCN(c2ccc3cc(-c4cc5cc(C)ccn5n4)c(=O)oc3c2)CC1 [Compound 307, 7-(4-ethylpiperazin-1-yl)-3-(5-methylpyrazolo[1,5-a]pyridin-2-yl)-2H-chromen-2-one] | – | – | 3000 to 10000 nM | *** (fold increase between >1.35 and ≤1.5) | 0.3 to 1 µM
287 to 289 °C | Cc1cn2cc(-c3cc4ccc(N5CCN(C6CC6)CC5)cc4oc3=O)nc2cn1 [Compound 811, 7-(4-cyclopropylpiperazin-1-yl)-3-(6-methylimidazo[1,2-a]pyrazin-2-yl)-2H-chromen-2-one] | – | – | 300 to 1000 nM | **** (fold increase between >1.5 and ≤1.65) | 0.3 to 1 µM
213 to 216 °C | Cc1csc2nc(-c3cc4ccc(N5CCN(C)CC5)cc4oc3=O)cn12 [Compound 185, 3-(3-methylimidazo[2,1-b][1,3]thiazol-6-yl)-7-(4-methylpiperazin-1-yl)-2H-chromen-2-one] | – | – | – | * (maximum fold increase of ≤1.2) | 3 to 30 µM
145 to 147 °C | CCN1CCN(c2ccc3cc(-c4cccc(OC)n4)c(=O)oc3c2)CC1 [Compound 360, 7-(4-ethylpiperazin-1-yl)-3-(6-methoxypyridin-2-yl)-2H-chromen-2-one] | – | – | – | * (maximum fold increase of ≤1.2) | 1 to 3 µM
